{"source": "patent US6025374A", "about": "“Azetidine, pyrrolidine and piperidine derivatives as 5HT1 receptor agonists” (Merck Sharp & Dohme, Ltd., priority 1994, dated 2000)", "origin": "cited, not measured here", "conditions": "therapeutic doses; literature"}
{"molecule": "CNS(=O)(=O)Cc1ccc2[nH]cc(CCN(C)C)c2c1", "note": "[sumatriptan]", "values": [{"measurement": "adverse events in humans", "result": "certain adverse cardiovascular events"}]}
